Here are results for 18 compounds from patent publication EP2064211B1, “IMIDAZO[1,2-A]PYRIDINE HYDROXYMATE COMPOUNDS THAT ARE INHIBITORS OF HISTONE DEACETYLASE” (MEI Pharma, Inc., priority 2006, dated 2008).

Converted amounts (≈) assume the structure as drawn. Bounds are passed on as bounds.

Series [1] is described as follows: Measurement of microsomal stability. It is filed as in vitro ADME. Conditions: pooled human liver microsomes 1.0 mg/ml, test compound 5 µM, pH 7.4, incubation up to 60 min. As for the experimental part: Metabolic stability measurements in vitro using liver microsomes aids in the prediction of in vivo hepatic clearance and compound stability towards phase I biotransformation reactions mediated by P450 isozymes.
Pooled human liver microsome (HLM) preparation was purchased from BD Gentest (BD BioSciences). The incubations consisted of test compound (5 µM) or control compound (Verapamil), NADPH-generating system solution A (25 mM NADP^+, 66 mM glucose-6-phosphate, 66 mM MgCl2 in H2O), NADPH-generating system solution B (40 U/ml glucose-6-phosphate dehydrogenase in 5 mM sodium citrate) and 1.0 mg/ml microsomal protein, respectively, in 100 mM potassium phosphate buffer (pH 7.4). Samples are incubated for 0, 5, 15, 30, 45, 60min. Reaction is terminated with ice-cold 80% acetonitrile and 20% DMSO. Samples are subsequently centrifuged at 4°C for 15 min at 2,000 rpm. 100 µL of the supernatant is transferred to the LC-MS plate for analysis. Before quantitative analysis, the compound is tuned in the LC/MS machine to get the optimized MS condition. Liquid chromatography is performed on a Luna C18 column (Phenomenex U.S.A, Torrance, CA) (2x50mm, […]). Percentage (%) remaining of compound (by area) of each time point is calculated with respect to time 0. Plot %remaining against time (min) to obtain the curve and use the Prism software to obtain the T1/2. […]

Series [2] is described as follows: High Throughput Solubility Profiling (HTSP), kinetic solubility. Format: physicochemical. Particulars: phosphate buffer with 2.5% DMSO, aqueous buffer, kinetic from dmso stock, phosphate buffer (pH 7), final concentration 250 µM. As for the experimental part:
Determining compound aqueous solubility has become an essential early measurement in the drug discovery process. Poor aqueous solubility can cause problems in many in vitro testing techniques, leading to unreliable results. The standard way to determine the solubility of a compound is to use the shake-flask solubility method. However, this method is inherently low-throughput and labour intensive.
10mM compound stock in DMSO was dissolved in phosphate buffer (pH 7) to give a final concentration of 250µM in 96-well plates in triplicate. The plate was shaken for 1.5 hours at 450 rpm and left to stand for 2 hours to allow the compound to reach its saturation point. The plate was then centrifuged at 2000g for 15 minutes. The supernatant was transferred and mixed with 20µL of DMSO in another 96-well plate. A calibration curve at 100µM and 250µM was prepared from the 10mM stock by dissolving in 60% methanol/phosphate buffer solution. LC/MS was used in the analysis and the area counts were obtained by using the Quantify Method Editor. Using the three point standard curve including zero, the results for solubility were reported. […]

Series [3] relates to Colo205 cells. Put plainly: Cell-based proliferation assay for determination of GI50 values (CyQUANT). Also noted: species or system Human. Conditions: Homo sapiens, COLO 205, compound treatment 96 h, concentration for 50% inhibition of cell growth, read-out: Gl50 (Colo205). Here is the method: Human cancer cell lines (e.g. Colo205) were obtained from ATCC. Colo205 cells were cultivated in RPMI 1640 containing 2 mM L-Glutamine, 5% FBS, 1.0 mM Na Pyruvate. Colo205 cells were seeded in 96-wells plate at 5000 cells per well. The plates were incubated at 37°C, 5% CO2, for 24 h. Cells were treated with compounds at various concentrations for 96 h. Cell growth was then monitored using CyQUANT® cell proliferation assay (Invitrogen Pte Ltd). Dose response curves were plotted to determine Gl50 values for the compounds using XL-fit (ID Business Solution, Emeryville, CA). Gl50 is defined as the concentration of compound required for 50% inhibition of cell growth.

Series [4] concerns the target T1, HDAC1 enzyme (Homo sapiens, UniProt Q13547).
T1 construct: Amplification of human HDAC1 coding region from this cDNA library was cloned separately into the baculovirus expression pDEST20 vector; made in house; host or cells: SF9 insect cells (baculovirus, pDEST20 vector)
The experiment in a line: In vitro HDAC assay for determination of IC50 values (BIOMOL fluorescent-based HDAC activity assay). It is filed as biochemical. Conditions: recombinant GST-HDAC1, 500 uM Flur de lys substrate, room temperature 2 h; read-out: IC50 (HDAC 1). Here is the method:
Human cDNA library was prepared using cultured SW620 cells. Amplification of human HDAC1 coding region from this cDNA library was cloned separately into the baculovirus expression pDEST20 vector (GATEWAY Cloning Technology, Invitrogen Pte Ltd). The pDEST20-HDAC1 construct was confirmed by DNA sequencing. Recombinant baculovirus was prepared using the Bac-To-Bac method following the manufacturer's instruction (Invitrogen Pte Ltd).
Expression of GST-HDAC1 was done by infecting SF9 cells (Invitrogen Pte Ltd) with pDEST20-HDAC1 baculovirus at MOI=1 for 48 h. Soluble cell lysate was incubated with pre-equilibrated Glutathione Sepharose 4B beads (Amersham) at 4°C for 2 h. The beads were washed with PBS buffer for 3 times. The GST-HDAC1 protein was eluted by elution buffer containing 50 mM Tris, pH8.0, 150mM NaCl, 1% Triton X-100 and 10mM or 20mM reduced Glutathione. The purified GST-HDAC1 protein was dialyzed with HDAC storage buffer containing 10mM Tris, pH7.5, 100mM NaCl and 3mM MgCl2. 20% Glycerol was added to purified GST-HDAC1 protein before storage at -80°C.
The assay has been carried out in 96 well format and the BIOMOL fluorescent-based HDAC activity assay has been applied. The reaction composed of assay buffer, containing 25 mM Tris pH 7.5, 137 mM NaCl, 2.7 mM KCl, 1 mM MgCl2, 1 mg/ml BSA, tested compounds, an appropriate concentration of HDAC1 enzyme, 500 uM Flur de lys generic substrate for HDAC1 enzyme and subsequently was incubated at room temperature for 2 h. Flur de lys Developer was added and the reaction was incubated for 10 min. Briefly, deacetylation of the substrate sensitizes it to the developer, which then generates a fluorophore. The fluorophore is excited with 360 nm light and the emitted light (460 nm) is detected on a fluorometric plate reader (Tecan Ultra Microplate detection system, Tecan Group Ltd.).
The analytical software, Prism 4.0 (GraphPad Software Inc) has been used to generate IC50 from a series of data. IC50 is defined as the concentration of compound required for 50% inhibition of HDAC enzyme activity.

T1 sequence (Q13547 whole entry): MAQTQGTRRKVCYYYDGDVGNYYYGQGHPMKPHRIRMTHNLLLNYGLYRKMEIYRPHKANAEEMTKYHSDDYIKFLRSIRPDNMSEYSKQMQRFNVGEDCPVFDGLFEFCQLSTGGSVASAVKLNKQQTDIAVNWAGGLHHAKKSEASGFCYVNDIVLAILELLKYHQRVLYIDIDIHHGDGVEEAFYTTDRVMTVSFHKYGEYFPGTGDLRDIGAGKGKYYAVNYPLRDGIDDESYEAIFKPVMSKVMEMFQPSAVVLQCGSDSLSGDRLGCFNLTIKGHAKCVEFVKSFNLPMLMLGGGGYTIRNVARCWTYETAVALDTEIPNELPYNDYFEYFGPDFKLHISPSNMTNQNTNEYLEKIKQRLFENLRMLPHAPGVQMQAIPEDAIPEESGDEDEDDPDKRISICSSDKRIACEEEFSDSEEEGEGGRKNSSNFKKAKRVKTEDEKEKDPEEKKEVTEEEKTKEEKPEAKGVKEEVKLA

In turn, `CCCCc1nc2cc(C=CC(=O)NO)ccn2c1CNC(C)(C)C` [Compound 5, 3-[2-Butyl-3-(tert-butylamino-methyl)-imidazo[1,2-a]pyridin-7-yl]-N-hydroxy-acrylamide] displayed a half-life at 5 µM in series [1] greater than 60 min. The solubility in series [2] is 200 µM (≈ 68.9 µg/mL). For the same compound, the IC50 was 140 nM in series [3] and 20 nM in series [4].

As to `CCCCN(CC)Cc1c(C)nc2cc(C=CC(=O)NO)ccn12` [Compound 29, 3-{3-[(Butyl-ethyl-amino)-methyl]-2-methyl-imidazo[1,2-a]pyridin-7-yl}-N-hydroxy-acrylamide], in series [1], the half-life at 5 µM was determined as 59 min. The IC50 in series [3] amounted to 180 nM; in series [4], 30 nM.

As to `CCN(CCC(C)C)Cc1c(C)nc2cc(C=CC(=O)NO)ccn12` [Compound 49, 3-(3-{[Ethyl-(3-methyl-butyl)-amino]-methyl}-2-methyl-imidazo[1,2-a]pyridin-7-yl)-N-hydroxy-acrylamide], the half-life at 5 µM in series [1] was greater than 60 min. The compound further displayed a solubility in series [2] greater than 250 µM. In addition, the IC50 in series [3] was 110 nM.

In series [1], `CCN(CCC(C)(C)C)Cc1c(C)nc2cc(C=CC(=O)NO)ccn12` [Compound 50, 3-(3-{[(3,3-Dimethyl-butyl)-ethyl-amino]-methyl}-2-methyl-imidazo[1,2-a]pyridin-7-yl)-N-hydroxy-acrylamide] displayed a half-life at 5 µM of 45 min. The IC50 in series [3] amounted to 160 nM; in series [4], 50 nM.

As to `CCCCCc1nc2cc(C=CC(=O)NO)ccn2c1CN(CC)CCCC` [Compound 54, 3-{3-[(Butyl-ethyl-amino)-methyl]-2-pentyl-imidazo[1,2-a]pyridin-7-yl}-N-hydroxy-acrylamide], the values for the IC50 in series [3] and in series [4] were 150 nM and 40 nM, respectively.

In the case of `CCCCCc1nc2cc(C=CC(=O)NO)ccn2c1CN(CC)CCC(C)C` [Compound 55, 3-(3-{(Ethyl-(3-methyl-butyl)-amino]-methyl}-2-pentyl-imidazo[1,2-a]pyridin-7-yl)-N-hydroxy-acrylamide], the IC50 in series [3] was 140 nM; in series [4], 30 nM.

On to `CCCCCc1nc2cc(C=CC(=O)NO)ccn2c1CN(CC)CCC(C)(C)C` [Compound 56, 3-(3-{[(3,3-Dimethyl-butyl)-ethyl-amino]-methyl}-2-pentyl-imidazo[1,2-a]pyridin-7-yl)-N-hydroxy-acrylamide], for which the IC50 in series [3] was found to be 150 nM; in series [4], 30 nM.

On to `CCCCN(CC)Cc1c(CCC)nc2cc(C=CC(=O)NO)ccn12` [Compound 57, 3-{3-[(Butyl-ethyl-amino)-methyl]-2-propyl-imidazo[1,2-a]pyridin-7-yl}-N-hydroxy-acrylamide], for which the IC50 in series [3] is 160 nM; in series [4], 40 nM.

Take `CC(C)Cc1nc2cc(C=CC(=O)NO)ccn2c1CNC(C)(C)C` [Compound 58, 3-[3-(tert-Butylamino-methyl)-2-isobutyl-imidazo[1,2-a]pyridin-7-yl]-N-hydroxy-acrylamide]: the IC50 in series [3] was determined as 210 nM; in series [4] it was 50 nM.

With `CCCCN(CC)Cc1c(CC(C)C)nc2cc(C=CC(=O)NO)ccn12` [Compound 59, 3-{3-[(Butyl-ethyl-amino)-methyl]-2-isobutyl-imidazo[1,2-a]pyridin-7-yl}-N-hydroxy-acrylamide], the values for the IC50 in series [3] and in series [4] were 150 nM and 40 nM, respectively.

For the compound `CCN(CCC(C)(C)C)Cc1c(CC(C)C)nc2cc(/C=C/C(=O)NO)ccn12` [Compound 61], the results for the IC50 in series [3] and in series [4] were 170 nM and 30 nM, respectively.

On to `CCc1nc2cc(C=CC(=O)NO)ccn2c1CNC(C)(C)C` [Compound 62, 3-[3-(tert-Butylamino-methyl)-2-ethyl-imidazo[1,2-a]pyridin-7-yl]-N-hydroxy-acrylamide], for which the IC50 in series [3] amounted to 260 nM; in series [4], 30 nM.

As for `CCCCN(CC)Cc1c(CC)nc2cc(C=CC(=O)NO)ccn12` [Compound 63, 3-{3-[(Butyl-ethyl-amino)-methyl]-2-ethyl-imidazo[1,2-a]pyridin-7-yl}-N-hydroxy-acrylamide], the half-life at 5 µM in series [1] is greater than 60 min. Also, the figures for the IC50 in series [3] and in series [4] were 180 nM and 50 nM, respectively.

For `CCc1nc2cc(C=CC(=O)NO)ccn2c1CN(CC)CCC(C)C` [Compound 64, 3-(2-Ethyl-3-{[ethyl-(3-methyl-butyl)-amino]-methyl}-imidazo[1,2-a]pyridin-7-yl)-N-hydroxy-acrylamide], in series [1], the half-life at 5 µM was greater than 60 min. Besides, the IC50 in series [3] was determined as 100 nM; in series [4], 20 nM.

`CC(C)CCc1nc2cc(C=CC(=O)NO)ccn2c1CNC(C)(C)C` [Compound 65, 3-[3-(tert-Butylamino-methyl)-2-(3-methyl-butyl)-imidazo[1,2-a]pyridin-7-yl]-N-hydroxy-acrylamide] gave a half-life at 5 µM in series [1] greater than 60 min. The IC50 in series [3] turned out to be 100 nM; in series [4] it was 20 nM.

As for `CCCCN(CC)Cc1c(CCC(C)C)nc2cc(C=CC(=O)NO)ccn12` [Compound 66, 3-[3-[(Butyl-ethyl-amino)-methyl]-2-(3-methyl-butyl)-imidazo[1,2-a]pyridin-7-yl]-N-hydroxy-acrylamide], the IC50 is 160 nM in series [3] and 40 nM in series [4].

As to `CCN(CCC(C)C)Cc1c(CCC(C)C)nc2cc(/C=C/C(=O)NO)ccn12` [Compound 67, 3-[3-{[Ethyl-(3-methyl-butyl)-amino]-methy}-2-(3-methyl-butyl)-imidazo[1,2-a]pyridin-7-yl]-N-hydroxy-acrylamide], the IC50 in series [3] came to 130 nM; in series [4], 30 nM.

In the case of `CCN(CCC(C)(C)C)Cc1c(CCC(C)C)nc2cc(C=CC(=O)NO)ccn12` [Compound 68, 3-[3-{[(3,3-Dimethyl-butyl)-ethyl-amino]-methyl}-2-(3-methyl-butyl)-imidazo[1,2-a]pyridin-7-yl]-N-hydroxy-acrylamide], the IC50 in series [3] was found to be 130 nM; in series [4] it was 40 nM.
